Article PMC6125541, “Bioequivalence of a Fixed-Dose Combination Tablet of the Complete Two-Drug Regimen of Dolutegravir and Rilpivirine for Treatment of HIV-1 Infection” (Antimicrobial Agents and Chemotherapy, 2018)

Key:
[1] = parameters: method as in PMID 24798770; details: cited from earlier work
[2] = Phase I open-label randomized 2-way crossover bioequivalence study, plasma pharmacokinetics of DTG and RPV; assay type: in vivo, healthy adults; details: blind sample size reestimation after 57 participants
From the text: This phase I study (ViiV-clinicalstudyregister.com identifier 201676) utilized an open-label, randomized, 2-way crossover design at a single center (Quintiles, Overland Park, KS, USA) (Fig. 2). The total duration of the study was approximately 8 weeks from the time of screening to the last follow-up visit. A crossover design was selected for this study to allow within-participant comparisons to be performed, thereby reducing the number of participants required for the study. Rilpivirine has a long half-life (∼50 h) ([15]); therefore, a 21-day washout between doses and a long pharmacokinetic sampling period were implemented to ensure that predose concentrations were negligible and that pharmacokinetic parameters could be well estimated.
The reference treatment consisted of DTG 50-mg tablets (Tivicay; ViiV Healthcare, Research Triangle Park, NC, USA), which were identical in composition to the commercial form except for a different film coat color, and commercial RPV 25-mg tablets (Edurant; Janssen Therapeutics, Titusville, NJ, USA). The test treatment was the FDC tablet with DTG at 50 mg and RPV at 25 mg (Juluca; ViiV Healthcare, Research Triangle Park, NC, USA).
Participants were randomly assigned 1:1 to 1 of 2 treatment sequences according to a randomization schedule generated before the start of the study. […]

[3] = parameters: method as in PMID 23979733; details: DTG 50 mg once daily and RPV 25 mg once daily with a moderate-fat meal; cited from earlier work
[4] = cited from earlier work

SMILES | Plasma exposure in the fed state [1] | Observed within-participant coefficient of variation (CVw) of Cmax [2] [%] | Change in AUC0–t or Cmax on coadministration [3] | Half-life [4] [h] | Decrease in absorption after fasting versus a normal-fat meal ([4]; fasting vs normal-fat meal)
C[C@@H]1CCO[C@H]2Cn3cc(C(=O)NCc4ccc(F)cc4F)c(=O)c(O)c3C(=O)N12 [DTG, dolutegravir] | increase | 14.8 | no significant change | – | –
Cc1cc(/C=C/C#N)cc(C)c1Nc1ccnc(Nc2ccc(C#N)cc2)n1 [RPV, rilpivirine] | – | 32.9 | no significant change | ~50 | approximately 40%
